Literature values in patent publication US20100280975A1, “SYSTEMS FOR CLINICAL TRIALS” (WisTa Laboratories Ltd., priority 2007, published 2010).

Settings: placebo arm improved 3.2 units from baseline ADAS-cog; cited from earlier work

For `COCCOC(=O)C1=C(C)NC(C)=C(C(=O)OC(C)C)C1c1cccc(C#N)c1Cl` (stereo not shown) [MEM-1003], the “efficacy in clinical trial” value is listed as “failed to demonstrate efficacy”.
